Values quoted from earlier work as cited in patent US20030111427A1, “Composition for controlling the dissolving rate of solid sanitizers” (Arch Chemicals, Inc., priority 2001, published 2003).

Details: at 30° C.

In the case of [Ca+2].[O-]Cl.[O-]Cl [calcium hypochlorite], the “time for all of the calcium hypochlorite to dissolve” value (21.6 grams in 100 grams of water) is listed as “less than 5 minutes” and the “amount that dissolves in 100 grams of water” value (in 100 grams of water) is listed as “about 21.6 grams”.
